Measured values reported in PubChem BioAssay (NCI).
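The compound was tested at five concentrations on cells cultured in 96-well plates, with a 48-hour exposure period. Abbreviation: GI50, concentration required for 50% inhibition of growth. The concentration for full growth arrest is given as TGI.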

Columns and labels:
Assay in all cases: NCI anticancer screen, dose series, 48 h
CCRF-CEM leukemia = tested on: CCRF-CEM leukemia
HCT-15 colon = tested on: HCT-15 colon
HOP-62 NSCLC = tested on: HOP-62 NSCLC
HT29 colon = tested on: HT29 colon
IGROV1 ovarian = tested on: IGROV1 ovarian
K-562 leukemia = tested on: K-562 leukemia
KM12 colon = tested on: KM12 colon
M14 melanoma = tested on: M14 melanoma
NCI-H23 lung = tested on: NCI-H23 lung
OVCAR-8 ovarian = tested on: OVCAR-8 ovarian
SF-268 CNS = tested on: SF-268 CNS
SK-MEL-28 melanoma = tested on: SK-MEL-28 melanoma
SK-OV-3 ovarian = tested on: SK-OV-3 ovarian
SNB-19 CNS = tested on: SNB-19 CNS
U251 CNS = tested on: U251 CNS
UACC-257 melanoma = tested on: UACC-257 melanoma
COLO 205 colon = tested on: COLO 205 colon
EKVX NSCLC = tested on: EKVX NSCLC
SW-620 colon = tested on: SW-620 colon

O=C(N/N=C/c1cc(Br)cc(Br)c1[O-])c1ccccc1O.O=C(N/N=C/c1cc(Br)cc(Br)c1[O-])c1ccccc1O.[Cu+2]
GI50 (CCRF-CEM leukemia): 0.446 µM | TGI (CCRF-CEM leukemia): 4.54 µM | TGI (HCT-15 colon): 1.77 µM | TGI (HOP-62 NSCLC): 0.845 µM | TGI (HT29 colon): 2.5 µM | TGI (IGROV1 ovarian): 1.06 µM | TGI (K-562 leukemia): 0.213 µM | TGI (KM12 colon): 1.98 µM | TGI (M14 melanoma): 1.05 µM | TGI (NCI-H23 lung): 0.484 µM | TGI (OVCAR-8 ovarian): 1.38 µM | TGI (SF-268 CNS): 2.51 µM | TGI (SK-MEL-28 melanoma): 2.01 µM | TGI (SK-OV-3 ovarian): 1.12 µM | TGI (SNB-19 CNS): 2.28 µM | TGI (U251 CNS): 1.24 µM | TGI (UACC-257 melanoma): 1.74 µM

O=c1c(C(c2ccc(Cl)cc2)c2c(O)c3ccccc3n(-c3ccccc3)c2=O)c(O)c2ccccc2n1-c1ccccc1
TGI (CCRF-CEM leukemia): > 100 µM | TGI (COLO 205 colon): > 100 µM | TGI (EKVX NSCLC): 91.1 µM | TGI (HCT-15 colon): > 100 µM | TGI (HOP-62 NSCLC): > 100 µM | TGI (IGROV1 ovarian): > 100 µM | TGI (K-562 leukemia): > 100 µM | TGI (KM12 colon): > 100 µM | TGI (NCI-H23 lung): > 100 µM | TGI (OVCAR-8 ovarian): > 100 µM | TGI (SF-268 CNS): > 100 µM | TGI (SK-MEL-28 melanoma): > 100 µM | TGI (SK-OV-3 ovarian): > 100 µM | TGI (SNB-19 CNS): > 100 µM | TGI (SW-620 colon): > 100 µM | TGI (U251 CNS): > 100 µM

CN1C2CCC1CC(C)(O)C2 (centres undefined)
TGI (CCRF-CEM leukemia): > 100 µM | TGI (COLO 205 colon): > 100 µM | TGI (EKVX NSCLC): > 100 µM | TGI (HCT-15 colon): > 100 µM | TGI (HOP-62 NSCLC): > 100 µM | TGI (HT29 colon): > 100 µM | TGI (K-562 leukemia): > 100 µM | TGI (KM12 colon): > 100 µM | TGI (M14 melanoma): > 100 µM | TGI (NCI-H23 lung): > 100 µM | TGI (OVCAR-8 ovarian): > 100 µM | TGI (SF-268 CNS): > 100 µM | TGI (SK-MEL-28 melanoma): > 100 µM | TGI (SNB-19 CNS): > 100 µM | TGI (SW-620 colon): > 100 µM | TGI (U251 CNS): > 100 µM | TGI (UACC-257 melanoma): > 100 µM

COc1ccc(N2C(=O)CSC2c2c[nH]c3ccccc23)cc1 (centres undefined)
TGI (CCRF-CEM leukemia): > 100 µM | TGI (COLO 205 colon): > 100 µM | TGI (EKVX NSCLC): > 100 µM | TGI (HCT-15 colon): > 100 µM | TGI (HOP-62 NSCLC): > 100 µM | TGI (HT29 colon): > 100 µM | TGI (IGROV1 ovarian): > 100 µM | TGI (K-562 leukemia): > 100 µM | TGI (KM12 colon): > 100 µM | TGI (M14 melanoma): > 100 µM | TGI (NCI-H23 lung): > 100 µM | TGI (OVCAR-8 ovarian): > 100 µM | TGI (SF-268 CNS): > 100 µM | TGI (SK-MEL-28 melanoma): > 100 µM | TGI (SK-OV-3 ovarian): > 100 µM | TGI (SNB-19 CNS): > 100 µM | TGI (SW-620 colon): > 100 µM | TGI (U251 CNS): > 100 µM | TGI (UACC-257 melanoma): > 100 µM
